According to ChEMBL document CHEMBL3045097, “Synthesis and anticonvulsant evaluation of 2-(substituted benzylidene/ethylidene)-N-(substituted phenyl)hydrazinecarboxamide analogues” (Med Chem Res, 2013):
Active and inactive are the calls of the source. The rule behind the calls is not given here.

Legend:
Mus musculus [1] = test: Neurotoxicity in Mus musculus (mouse) assessed as motor impairment at 30 to 300 mg/kg, ip measured at 4 hr by rotarod test; assay type: toxicity, organism-based; set-up: dose 30-300 mg/kg, route intraperitoneal; settings: in vivo
Mus musculus [2] = test: Neurotoxicity in Mus musculus (mouse) assessed as motor impairment at 100 mg/kg, ip measured at 4 hr by rotarod test relative to control; assay type: toxicity, organism-based; set-up: dose 100 mg/kg, route intraperitoneal; settings: in vivo
Mus musculus [3] = test: Neurotoxicity in Mus musculus (mouse) assessed as motor impairment at 30 to 300 mg/kg, ip measured at 0.5 hr by rotarod test; assay type: toxicity, organism-based; set-up: dose 30-300 mg/kg, route intraperitoneal; settings: in vivo
Mus musculus [4] = test: Anticonvulsant activity in i.p. dosed Mus musculus (mouse) assessed as protection against maximal-electric shock-induced seizures measured at 4 hr; assay type: functional; settings: ip, read-out: MED
Mus musculus [5] = test: Neurotoxicity in Mus musculus (mouse) assessed as motor impairment at 100 mg/kg, ip measured at 2 hr by rotarod test relative to control; assay type: toxicity, organism-based; set-up: dose 100 mg/kg, route intraperitoneal; settings: in vivo
Mus musculus [6] = test: Neurotoxicity in Mus musculus (mouse) assessed as motor impairment at 100 mg/kg, ip measured at 0.25 hr by rotarod test relative to control; assay type: toxicity, organism-based; set-up: dose 100 mg/kg, route intraperitoneal; settings: in vivo
Mus musculus [7] = test: Anticonvulsant activity in Mus musculus (mouse) assessed as protection against 6 Hz psychomotor-induced clonic seizures at 100 mg/kg, ip measured at 2 hr relative to control; assay type: functional
Mus musculus [8] = test: Anticonvulsant activity in Mus musculus (mouse) assessed as protection against 6 Hz psychomotor-induced clonic seizures at 100 mg/kg, i.p. measured at 1 hr relative to control; assay type: functional
Mus musculus [9] = test: Anticonvulsant activity in Mus musculus (mouse) assessed as protection against maximal-electric shock-induced seizures at 30 to 300 mg/kg, ip measured at 0.5 hr; assay type: functional, organism-based
Mus musculus [10] = test: Neurotoxicity in Mus musculus (mouse) assessed as motor impairment at 100 mg/kg, ip measured at 0.5 hr by rotarod test relative to control; assay type: toxicity, organism-based; set-up: dose 100 mg/kg, route intraperitoneal; settings: in vivo
Mus musculus [11] = test: Anticonvulsant activity in Mus musculus (mouse) assessed as protection against 6 Hz psychomotor-induced clonic seizures at 100 mg/kg, i.p. measured at 0.5 hr relative to control; assay type: functional
Mus musculus [12] = test: Neurotoxicity in Mus musculus (mouse) assessed as motor impairment at 100 mg/kg, ip measured at 1 hr by rotarod test relative to control; assay type: toxicity, organism-based; set-up: dose 100 mg/kg, route intraperitoneal; settings: in vivo
Mus musculus [13] = test: Anticonvulsant activity in Mus musculus (mouse) assessed as protection against 6 Hz psychomotor-induced clonic seizures at 100 mg/kg, i.p. measured at 4 hr relative to control; assay type: functional
Mus musculus [14] = test: Anticonvulsant activity in Mus musculus (mouse) assessed as protection against 6 Hz psychomotor-induced clonic seizures at 100 mg/kg, i.p. measured at 0.25 hr relative to control; assay type: functional
Mus musculus [15] = test: Anticonvulsant activity in Mus musculus (mouse) assessed as protection against scMET-induced clonic seizures at 30 to 300 mg/kg, ip measured at 0.5 to 4 hr; assay type: functional, organism-based
Mus musculus [16] = test: Anticonvulsant activity in Mus musculus (mouse) assessed as protection against maximal-electric shock-induced seizures at 30 to 300 mg/kg, ip measured at 4 hr; assay type: functional, organism-based
Mus musculus [17] = test: Anticonvulsant activity in i.p. dosed Mus musculus (mouse) assessed as protection against maximal-electric shock-induced seizures measured at 0.5 hr; assay type: functional; settings: ip, read-out: MED
Mus musculus [18] = test: Neurotoxicity in i.p. dosed Mus musculus (mouse) assessed as motor impairment measured at 0.5 hr by rotarod test; assay type: toxicity, organism-based; settings: in vivo, ip
Mus musculus [19] = test: Neurotoxicity in i.p. dosed Mus musculus (mouse) assessed as motor impairment measured at 4 hr by rotarod test; assay type: toxicity, organism-based; settings: in vivo, ip

Row | SMILES | Activity (Mus musculus [1]) | Activity (Mus musculus [2]) | Activity (Mus musculus [3]) | minimal effective dose (Mus musculus [4]) | Activity (Mus musculus [5]) | Activity (Mus musculus [6]) | Activity (Mus musculus [9]) | Activity (Mus musculus [10]) | Activity (Mus musculus [12]) | Activity (Mus musculus [15]) | Activity (Mus musculus [16]) | also measured
1 | Cc1ccc(NC(=O)NN=C2CCCCC2)cc1 | Non-toxic | Non-toxic | Non-toxic | 300 mg/kg | Non-toxic | Non-toxic | inactive | Non-toxic | Non-toxic | inactive |  | Activity (Mus musculus [7]): inactive; Activity (Mus musculus [8]; route intraperitoneal): 50%; Activity (Mus musculus [11]; route intraperitoneal): 100%; Activity (Mus musculus [13]; route intraperitoneal): 25%; Activity (Mus musculus [14]; route intraperitoneal): 25%
2 | C/C(=N\NC(=O)Nc1ccccc1Cl)c1ccc(Cl)cc1 | Non-toxic | Non-toxic | Non-toxic | 100 mg/kg | Non-toxic | Non-toxic | inactive | Non-toxic | Non-toxic | inactive |  | Activity (Mus musculus [7]): inactive; Activity (Mus musculus [8]; route intraperitoneal): 50%; Activity (Mus musculus [11]): inactive; Activity (Mus musculus [13]): inactive; Activity (Mus musculus [14]): inactive
3 | C/C(=N\NC(=O)Nc1ccc(C)cc1)c1ccccc1O | Non-toxic |  | Non-toxic |  |  |  | inactive |  |  | inactive | inactive | 
4 | COc1cc(/C=N/NC(=O)Nc2ccc(C)cc2)ccc1O | Non-toxic |  | Non-toxic |  |  |  | inactive |  |  | inactive | inactive | 
5 | O=C1NC(=O)C(c2ccccc2)(c2ccccc2)N1 [PHENYTOIN] |  |  |  | 30 mg/kg |  |  |  |  |  | inactive |  | minimal effective dose (Mus musculus [17]): 30 mg/kg; MTC (Mus musculus [18]): 100 mg/kg; MTC (Mus musculus [19]): 100 mg/kg
6 | O=C(N/N=C/c1cccc(O)c1)Nc1ccccc1Cl | Non-toxic |  | Non-toxic |  |  |  | inactive |  |  | inactive | inactive | 
7 | C/C(=N\NC(=O)Nc1ccc(C)cc1)c1ccc(O)cc1O | Non-toxic |  | Non-toxic |  |  |  | inactive |  |  | inactive | inactive | 
8 | NNC(=O)Nc1ccccc1Cl | Non-toxic | 25% | Non-toxic |  | Non-toxic | 25% | inactive | 25% | 25% | inactive | inactive | Activity (Mus musculus [7]; route intraperitoneal): 100%; Activity (Mus musculus [8]; route intraperitoneal): 100%; Activity (Mus musculus [11]; route intraperitoneal): 100%; Activity (Mus musculus [13]): Active; Activity (Mus musculus [14]; route intraperitoneal): 100%
9 | CC(=O)C/C(C)=N/NC(=O)Nc1ccc(C)cc1 | Non-toxic |  | Non-toxic |  |  |  | inactive |  |  | inactive | inactive | 
10 | O=C(N/N=C/c1ccco1)Nc1ccccc1Cl | Non-toxic |  | Non-toxic |  |  |  | inactive |  |  | inactive | inactive | 
11 | NC(=O)N1c2ccccc2C=Cc2ccccc21 [CARBAMAZEPINE] |  |  |  | 100 mg/kg |  |  |  |  |  | inactive |  | minimal effective dose (Mus musculus [17]): 30 mg/kg; MTC (Mus musculus [18]): 100 mg/kg; MTC (Mus musculus [19]): 300 mg/kg
12 | COc1ccc(/C(C)=N/NC(=O)Nc2ccccc2Cl)cc1 |  |  | Non-toxic | 300 mg/kg |  |  |  |  |  | inactive |  | minimal effective dose (Mus musculus [17]): 300 mg/kg; MTC (Mus musculus [19]): 300 mg/kg
13 | C/C(=N\NC(=O)Nc1ccccc1Cl)c1ccc(C)cc1 | Non-toxic |  | Non-toxic |  |  |  | inactive |  |  | inactive | inactive | 
14 | Cc1ccc(NC(=O)N/N=C/c2ccccc2Cl)cc1 | Non-toxic |  | Non-toxic |  |  |  | inactive |  |  | inactive | inactive | 
15 | O=C(N/N=C/c1ccc(Cl)cc1Cl)Nc1ccccc1Cl | Non-toxic |  | Non-toxic |  |  |  | inactive |  |  | inactive | inactive | 
16 | Cc1ccc(NC(=O)NN)cc1 |  | 50% | Non-toxic |  | 25% | Non-toxic |  | Non-toxic | Non-toxic | inactive | inactive | minimal effective dose (Mus musculus [17]): 300 mg/kg; Activity (Mus musculus [7]; route intraperitoneal): 25%; Activity (Mus musculus [8]; route intraperitoneal): 50%; Activity (Mus musculus [11]; route intraperitoneal): 50%; MTC (Mus musculus [19]): 300 mg/kg; Activity (Mus musculus [13]): inactive; Activity (Mus musculus [14]; route intraperitoneal): 100%
17 | Cc1ccc(NC(=O)N/N=C/c2cccc(O)c2)cc1 | Non-toxic | Non-toxic | Non-toxic |  | Non-toxic | Non-toxic | inactive | Non-toxic | Non-toxic | inactive | inactive | Activity (Mus musculus [7]; route intraperitoneal): 25%; Activity (Mus musculus [8]): inactive; Activity (Mus musculus [11]; route intraperitoneal): 25%; Activity (Mus musculus [13]): inactive; Activity (Mus musculus [14]; route intraperitoneal): 50%
18 | O=C(NN=C1CCCC1)Nc1ccccc1Cl | Non-toxic |  | Non-toxic |  |  |  | inactive |  |  | inactive | inactive | 
19 | COc1ccc(/C=N/NC(=O)Nc2ccccc2Cl)cc1OC | Non-toxic | Non-toxic | Non-toxic | 100 mg/kg | Non-toxic | Non-toxic | inactive | Non-toxic | Non-toxic | inactive |  | Activity (Mus musculus [7]; route intraperitoneal): 25%; Activity (Mus musculus [8]): inactive; Activity (Mus musculus [11]): inactive; Activity (Mus musculus [13]; route intraperitoneal): 25%; Activity (Mus musculus [14]; route intraperitoneal): 25%
20 | O=C(N/N=C/c1ccc(Cl)cc1)Nc1ccccc1Cl | Non-toxic |  | Non-toxic |  |  |  | inactive |  |  | inactive | inactive | 
21 | O=C(N/N=C/c1ccc(O)cc1)Nc1ccccc1Cl | Non-toxic | Non-toxic | Non-toxic | 100 mg/kg | Non-toxic | Non-toxic | inactive | Non-toxic | Non-toxic | inactive |  | Activity (Mus musculus [7]; route intraperitoneal): 50%; Activity (Mus musculus [8]; route intraperitoneal): 50%; Activity (Mus musculus [11]; route intraperitoneal): 100%; Activity (Mus musculus [13]): inactive; Activity (Mus musculus [14]; route intraperitoneal): 50%
